Experiment [1] has as its system JAK1-dependent STAT6 phosphorylation downstream of IL-13 stimulation, BEAS-2B cells. As to the kind of experiment: JAK1 pathway assay in cell lines: P-STAT6 in BEAS-2B cells + IL13. Format: cell-based. The conditions noted are these: BEAS-2B human bronchial epithelial cells, 1 hr compound preincubation, read-out: P-STAT6 BEAS2B + IL13 IC50. The protocol: JAK1 Pathway Assay in Cell Lines was Carried Out as Follows:
Inhibitor potency (EC50) was determined in cell-based assays designed to measure JAK1 dependent STAT phosphorylation. As noted above, inhibition of IL-4, IL-13, and IL-9 signaling by blocking the Jak/Stat signaling pathway can alleviate asthmatic symptoms in pre-clinical lung inflammation models (Mathew et al., 2001, J Exp Med 193(9): 1087-1096; Kudlacz et. al., 2008, Eur J. Pharmacol 582(1-3): 154-161).
In one assay approach, TF-1 human erythroleukemia cells obtained from the American Type Culture Collection (ATCC; Manassas, Va.) were used to measure JAK1-dependent STAT6 phosphorylation downstream of IL-13 stimulation. Prior to use in the assays, TF-1 cells were starved of GM-CSF overnight in OptiMEM medium (Life Technologies, Grand Island, N.Y.) supplemented with 0.5% charcoal/dextran stripped fetal bovine serum (FBS), 0.1 mM non-essential amino acids (NEAA), and 1 mM sodium pyruvate. The assays were run in 384-well plates in serum-free OptiMEM medium using 300,000 cells per well. In a second assay approach, BEAS-2B human bronchial epithelial cells obtained from ATCC were plated at 100,000 cells per well of a 96-well plate one day prior to the experiment. The BEAS-2B assay was run in complete growth medium (bronchial epithelial basal medium plus bulletkit; Lonza; Basel, Switzerland).
Test compounds were serially diluted 1:2 in DMSO and then diluted 1:50 in medium just before use. Diluted compounds were added to the cells, for a final DMSO concentration of 0.2%, and incubated for 30 m (for the TF-1 assay) or 1 hr (for the BEAS-2B assay) at 37° C. Then, cells were stimulated with human recombinant cytokine at their respective EC90 concentrations, as previously determined for each individual lot. Cells were stimulated with […] (R&D Systems, Minneapolis, Minn.) for 15 m/at 37° C. The TF-1 cell reactions were stopped by the direct addition of 10× lysis buffer (Cell Signaling Technologies, Danvers, Mass.), whereas the BEAS-2B cell incubations were halted by the removal of medium and addition of 1× lysis buffer. The resultant samples were frozen in the plates at −80° C. Compound mediated inhibition of STAT6 phosphorylation was measured in the cell lysates using MesoScale Discovery (MSD) technology (Gaithersburg, Md.). EC50 values were determined as the concentration of compound required for 50% inhibition of STAT phosphorylation relative to that measured for the DMSO control.

Experiment [2] concerns the target isolated recombinant JAK2 kinase domain (Homo sapiens, UniProt O60674). As to the kind of experiment: JAK enzyme assay (Caliper LabChip), JAK2 kinase domain. Particulars: ATP 25 μM, 0.2 nM JAK2, Morrison tight binding model.
Experimental: JAK Enzyme Assays were Carried Out as Follows:
The activity of the isolated recombinant JAK1 and JAK2 kinase domain was measured by monitoring phosphorylation of a peptide derived from JAK3 ([sequence] fluorescently labeled on the N-terminus with 5-carboxyfluorescein) using the Caliper LabChip® technology (Caliper Life Sciences, Hopkinton, Mass.). […] Reactions were incubated at 22° C. in 384-well polypropylene microtiter plates for 30 minutes and then stopped by addition of 25 μL of an EDTA containing solution (100 mM HEPES buffer (pH 7.2), 0.015% Brij-35, 150 mM EDTA), resulting in a final EDTA concentration of 50 mM. After termination of the kinase reaction, the proportion of phosphorylated product was determined as a fraction of total peptide substrate using the Caliper LabChip® 3000 according to the manufacturer's specifications.
Experiment [3] concerns the target isolated recombinant JAK1 kinase domain (Homo sapiens, UniProt P23458). Kind of experiment: JAK enzyme assay (Caliper LabChip), JAK1 kinase domain. Format: biochemical. The conditions noted are these: ATP 25 μM; 1.5 nM JAK1; Morrison tight binding model.

Structures are written as SMILES. Read-outs that look alike come from different tables or passages of the source.

Sequence of isolated recombinant JAK1 kinase domain (P23458 875-1153 limits assumed): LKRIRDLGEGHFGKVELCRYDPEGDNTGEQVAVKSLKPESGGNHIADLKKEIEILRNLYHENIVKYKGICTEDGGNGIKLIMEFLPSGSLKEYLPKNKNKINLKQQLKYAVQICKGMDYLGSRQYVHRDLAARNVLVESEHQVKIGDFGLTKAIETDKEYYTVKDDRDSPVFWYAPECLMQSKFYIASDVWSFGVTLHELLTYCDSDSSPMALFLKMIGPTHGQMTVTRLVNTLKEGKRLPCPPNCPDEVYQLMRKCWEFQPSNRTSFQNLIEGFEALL
Sequence of isolated recombinant JAK2 kinase domain (O60674 849-1124 limits assumed): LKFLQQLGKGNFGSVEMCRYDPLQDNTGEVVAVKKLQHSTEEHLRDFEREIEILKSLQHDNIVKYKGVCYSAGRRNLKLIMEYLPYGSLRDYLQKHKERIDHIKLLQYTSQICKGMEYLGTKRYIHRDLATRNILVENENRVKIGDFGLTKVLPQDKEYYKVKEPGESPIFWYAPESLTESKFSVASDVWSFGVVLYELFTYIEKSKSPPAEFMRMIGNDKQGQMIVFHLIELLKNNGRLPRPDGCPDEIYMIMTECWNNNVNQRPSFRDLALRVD

The IC50 is the concentration that inhibits the measured activity by half. In general, Ki refers to a measure of affinity in units of concentration, obtained from inhibition or displacement. Turning to `CC(C)Sc1ccc(OC(F)F)c(-c2nn(CCO)cc2NC(=O)c2cnn3cccnc23)c1` [Example 10, N-[3-[2-(difluoromethoxy)-5-isopropylsulfanyl-phenyl]-1-(2-hydroxyethyl)pyrazol-4-yl]pyrazolo[1,5-a]pyrimidine-3-carboxamide], the IC50 in experiment [1] (Homo sapiens, BEAS-2B, 1 h) came to 17 nM. Further, the values for the Ki in experiment [2] and in experiment [3] were 0.24 nM and 0.58 nM, respectively.

Turning to `O=C(Nc1c[nH]nc1-c1cc(SC2CCCNC2)ccc1OC(F)F)c1cnn2cccnc12` (single isomer, unassigned) [Example 37, N-[3-[2-(difluoromethoxy)-5-(3-piperidylsulfanyl)phenyl]-1H-pyrazol-4-yl]pyrazolo[1,5-a]pyrimidine-3-carboxamide], in experiment [1], the IC50 was found to be 222 nM. In addition, the figures for the Ki in experiment [2] and in experiment [3] were 0.57 nM and 1.16 nM, respectively.

Turning to `O=C(Nc1cn(C2COC2)nc1-c1cc(SC2COC2)ccc1OC(F)F)c1cnn2cccnc12` [Example 24, N-[3-[2-(difluoromethoxy)-5-(oxetan-3-ylsulfanyl)phenyl]-1-(oxetan-3-yl)pyrazol-4-yl]pyrazolo[1,5-a]pyrimidine-3-carboxamide], the IC50 in experiment [1] (Homo sapiens, BEAS-2B, 1 h) amounted to 17 nM. For the same compound, the Ki in experiment [2] came out at 0.22 nM; in experiment [3] it was 0.46 nM.

Turning to `O=C(Nc1c[nH]nc1-c1cc(SC2CCOCC2)ccc1OC(F)F)c1cnn2cccnc12` [Example 1, N-[3-[2-(difluoromethoxy)-5-tetrahydropyran-4-ylsulfanyl-phenyl]-1H-pyrazol-4-yl]pyrazolo[1,5-a]pyrimidine-3-carboxamide], the IC50 in experiment [1] (Homo sapiens, BEAS-2B, 1 h) turned out to be 11 nM. Also, the figures for the Ki in experiment [2] and in experiment [3] were 0.15 nM and 0.4 nM, respectively.

In the case of `O=C(Nc1cn(C2CN(C3CC(O)C3)C2)nc1-c1cc(SC2COC2)ccc1OC(F)F)c1cnn2cccnc12` (single isomer, unassigned) [Example 39, N-[3-[2-(difluoromethoxy)-5-(oxetan-3-ylsulfanyl)phenyl]-1-[1-(3-hydroxycyclobutyl)azetidin-3-yl]pyrazol-4-yl]pyrazolo[1,5-a]pyrimidine-3-carboxamide], the 50% inhibitory concentration (IC50) in experiment [1] (Homo sapiens, BEAS-2B, 1 h) amounted to 35 nM. For the same compound, the Ki stood at 1.18 nM in experiment [2] and 1.44 nM in experiment [3].

As to `O=C(Nc1c[nH]nc1-c1cc(SCC(F)(F)F)ccc1OC(F)F)c1cnn2cccnc12` [Example 3, N-[3-[2-(difluoromethoxy)-5-(2,2,2-trifluoroethylsulfanyl)phenyl]-1H-pyrazol-4-yl]pyrazolo[1,5-a]pyrimidine-3-carboxamide], the IC50 in experiment [1] (Homo sapiens, BEAS-2B, 1 h) worked out at 10 nM. Further, the values for the Ki in experiment [2] and in experiment [3] were 0.12 nM and 0.16 nM, respectively.

With `O=C(Nc1cn(Cc2cn(C3CCN([C@@H]4CCOC4)CC3)nn2)nc1-c1cc(SC2CC2)ccc1OC(F)F)c1cnn2cccnc12` (stereo in doubt) [Example 14, N-[3-[5-cyclopropylsulfanyl-2-(difluoromethoxy)phenyl]-1-[[1-[1-[rac-(3R)-tetrahydrofuran-3-yl]-4-piperidyl]triazol-4-yl]methyl]pyrazol-4-yl]pyrazolo[1,5-a]pyrimidine-3-carboxamide], the IC50 in experiment [1] (Homo sapiens, BEAS-2B, 1 h) is 13 nM. In addition, the Ki in experiment [2] worked out at 0.29 nM; in experiment [3], 0.4 nM.

For `CN(C)C(=O)Cn1cc(NC(=O)c2cnn3cccnc23)c(-c2cc(SCC(F)(F)F)ccc2OC(F)F)n1` [Example 47, N-(3-(2-(difluoromethoxy)-5-((2,2,2-trifluoroethyl)thio)phenyl)-1-(2-(dimethylamino)-2-oxoethyl)-1H-pyrazol-4-yl)pyrazolo[1,5-a]pyrimidine-3-carboxamide], in experiment [1] (Homo sapiens, BEAS-2B, 1 h), the IC50 was 15 nM. Further, the values for the inhibitory constant (Ki) in experiment [2] and in experiment [3] were 0.78 nM and 0.18 nM, respectively.

As to `O=C(Nc1c[nH]nc1-c1cc(SC2CCCC2)ccc1OC(F)F)c1cnn2cccnc12` [Example 7, N-[3-[5-cyclopentylsulfanyl-2-(difluoromethoxy)phenyl]-1H-pyrazol-4-yl]pyrazolo[1,5-a]pyrimidine-3-carboxamide], in experiment [1] (Homo sapiens, BEAS-2B, 1 h), the IC50 was found to be 12 nM. In addition, the Ki was 0.37 nM in experiment [2] and 0.76 nM in experiment [3].

The values are drawn from patent US20220024945A1, “THERAPEUTIC COMPOUNDS AND COMPOSITIONS, AND METHODS OF USE THEREOF” (Genentech, Inc., priority 2017, published 2022).
